Values quoted from earlier work, collected in publication PMC10817174, “Integrated drug response prediction models pinpoint repurposed drugs with effectiveness against rhabdomyosarcoma” (PLOS ONE, 2024).

Columns and labels:
[1] = system: GDSC-RD cell line; details: Table S2, published drug response ref Iorio et al. (2016); cited from earlier work
[2] = system: GDSC-SJCRH30 cell line; details: Table S2, published drug response ref Iorio et al. (2016); cited from earlier work

O=c1[nH]cc(F)c(=O)[nH]1 [5-Fluorouracil]
Iorio_RD [1]: R
Iorio_SJCRH30 [2]: R

C=CCNC1=C2C[C@@H](C)C[C@H](OC)[C@H](O)[C@@H](C)/C=C(\C)[C@H](OC(N)=O)[C@@H](OC)/C=C\C=C(/C)C(=O)NC(=CC1=O)C2=O [17-AAG]
Iorio_SJCRH30 [2]: R

Cc1ccc(F)c(NC(=O)Nc2ccc(-c3cccc4[nH]nc(N)c34)cc2)c1 [ABT-869]
Iorio_RD [1]: R
Iorio_SJCRH30 [2]: R

C[C@]1(c2nc3c(C(N)=O)cccc3[nH]2)CCCN1 [ABT-888]
Iorio_SJCRH30 [2]: R

CC(C)(C)c1cc(NC(=O)Nc2ccc(-c3cn4c(n3)sc3cc(OCCN5CCOCC5)ccc34)cc2)no1 [AC220]
Iorio_RD [1]: R
Iorio_SJCRH30 [2]: R

CNCc1ccc(-c2[nH]c3cc(F)cc4c3c2CCNC4=O)cc1 [AG-014699]
Iorio_RD [1]: R
Iorio_SJCRH30 [2]: R

NC(=O)c1ncn([C@@H]2O[C@H](CO)[C@@H](O)[C@H]2O)c1N [AICAR]
Iorio_SJCRH30 [2]: R

O=c1[nH]c2ccccc2n1C1CCN(Cc2ccc(-c3nc4cc5[nH]cnc5cc4nc3-c3ccccc3)cc2)CC1 [AKT-inhibitor-VIII]
Iorio_RD [1]: R
Iorio_SJCRH30 [2]: R

CC1(C)CNc2cc(NC(=O)c3cccnc3NCc3ccncc3)ccc21 [AMG-706]
Iorio_SJCRH30 [2]: R

Cc1ccc(C(=O)Nc2ccc(CN3CCN(C)CC3)c(C(F)(F)F)c2)cc1C#Cc1cnc2cccnn12 [AP-24534]
Iorio_RD [1]: R
Iorio_SJCRH30 [2]: R

CC(C)[C@H](C(=O)Nc1ccc(C(=O)NO)cc1)c1ccccc1 [AR-42]
Iorio_RD [1]: R
Iorio_SJCRH30 [2]: R

N#CC(c1ccnc(NCCc2cccnc2)n1)c1nc2ccccc2s1 (centres unmarked) [AS601245]
Iorio_RD [1]: R
Iorio_SJCRH30 [2]: R

O=C1NC(=O)/C(=C\c2ccc3nccnc3c2)S1 [AS605240]
Iorio_RD [1]: R
Iorio_SJCRH30 [2]: R

O=C(NC1CCNCC1)c1[nH]ncc1NC(=O)c1c(Cl)cccc1Cl [AT-7519]
Iorio_RD [1]: R
Iorio_SJCRH30 [2]: R

CC1=C(/C=C/C(C)=C/C=C/C(C)=C/C(=O)O)C(C)(C)CCC1 [ATRA]
Iorio_SJCRH30 [2]: R

CCNC(=O)c1noc(-c2cc(C(C)C)c(O)cc2O)c1-c1ccc(CN2CCOCC2)cc1 [AUY922]
Iorio_RD [1]: R
Iorio_SJCRH30 [2]: R

COc1cc2nccc(Oc3ccc(NC(=O)Nc4cc(C)on4)c(Cl)c3)c2cc1OC [AV-951, tivozanib]
Iorio_RD [1]: R
Iorio_SJCRH30 [2]: R

NC(=O)Nc1cc(-c2cccc(F)c2)sc1C(=O)N[C@H]1CCCNC1 [AZD7762]
Iorio_SJCRH30 [2]: S

COc1ccc(-c2ccc3c(N4CCOC[C@@H]4C)nc(N4CCOC[C@@H]4C)nc3n2)cc1CO [AZD8055]
Iorio_SJCRH30 [2]: R

CNC(=O)c1ccccc1Sc1ccc2c(/C=C/c3ccccn3)n[nH]c2c1 [Axitinib]
Iorio_SJCRH30 [2]: R

COc1ccc(-c2cc3nccn3c(Nc3ncccc3C(N)=O)n2)cc1OC [BAY-61-3606]
Iorio_RD [1]: R
Iorio_SJCRH30 [2]: R

Cc1ccc(-n2nc(C(C)(C)C)cc2NC(=O)Nc2ccc(OCCN3CCOCC3)c3ccccc23)cc1 [BIRB-0796]
Iorio_SJCRH30 [2]: R

CN(C)Cc1cccc(N/C(=C2\C(=O)Nc3cc(C(=O)N(C)C)ccc32)c2ccccc2)c1 [BIX02189]
Iorio_RD [1]: R
Iorio_SJCRH30 [2]: R

Cn1ncnc1[C@H]1c2n[nH]c(=O)c3cc(F)cc(c23)N[C@@H]1c1ccc(F)cc1 [BMN-673]
Iorio_RD [1]: R
Iorio_SJCRH30 [2]: S

Cc1ccc2nc(NCCN)c3ncc(C)n3c2c1 [BMS-345541]
Iorio_RD [1]: R
Iorio_SJCRH30 [2]: R

C[C@@]1(C(=O)Nc2ccc(F)nc2)CCCN1c1nc(Nc2cc(C3CC3)n[nH]2)c2cccn2n1 [BMS-754807]
Iorio_RD [1]: S
Iorio_SJCRH30 [2]: S

O=C(NCCCNc1nc(Nc2cccc(NC(=O)N3CCCC3)c2)ncc1I)c1cccs1 [BX-795]
Iorio_SJCRH30 [2]: R

O=C(Nc1cccc(Nc2ncc(Br)c(NCCc3cnc[nH]3)n2)c1)N1CCCC1 [BX-912]
Iorio_RD [1]: R
Iorio_SJCRH30 [2]: R

C=C(c1ccc(C(=O)O)cc1)c1cc2c(cc1C)C(C)(C)CCC2(C)C [Bexarotene]
Iorio_RD [1]: R
Iorio_SJCRH30 [2]: R

COc1cc(Nc2c(C#N)cnc3cc(OCCCN4CCN(C)CC4)c(OC)cc23)c(Cl)cc1Cl [Bosutinib]
Iorio_SJCRH30 [2]: R

CCC/C=C/C=C/C(=O)O[C@H]1/C(=C/C(=O)OC)C[C@H]2C[C@H]([C@@H](C)O)OC(=O)C[C@H](O)C[C@@H]3C[C@H](OC(C)=O)C(C)(C)[C@](O)(C[C@@H]4C/C(=C/C(=O)OC)C[C@H](/C=C/C(C)(C)[C@]1(O)O2)O4)O3 [Bryostatin-1]
Iorio_RD [1]: R
Iorio_SJCRH30 [2]: R

CC[C@H](Nc1ncnc2[nH]cnc12)c1nc2cccc(F)c2c(=O)n1-c1ccccc1 [CAL-101]
Iorio_RD [1]: R
Iorio_SJCRH30 [2]: R

CC(C)(C)OC(=O)Nc1ccc(-c2cc(C(=O)NCCCCCCC(=O)NO)no2)cc1 [CAY10603]
Iorio_RD [1]: R
Iorio_SJCRH30 [2]: R

CCc1cc(-c2n[nH]c(C)c2-c2ccc3c(c2)OCCO3)c(O)cc1O [CCT018159]
Iorio_RD [1]: R
Iorio_SJCRH30 [2]: R

C[C@]12O[C@H](C[C@]1(O)CO)n1c3ccccc3c3c4c(c5c6ccccc6n2c5c31)CNC4=O [CEP-701]
Iorio_SJCRH30 [2]: R

O=C(NOCC1CC1)c1ccc(F)c(F)c1Nc1ccc(I)cc1Cl [CI-1040]
Iorio_SJCRH30 [2]: R

COc1cc2ncnc(-n3nc(-c4ccccn4)nc3N)c2cc1OC [CP466722]
Iorio_RD [1]: R
Iorio_SJCRH30 [2]: R

COCC(=O)NC/C=C/c1ccc2ncnc(Nc3ccc(Oc4ccc(C)nc4)c(C)c3)c2c1 [CP724714]
Iorio_RD [1]: R
Iorio_SJCRH30 [2]: R

C#Cc1cccc(Nc2ncnc3cc(OC)c(OCCCCCCC(=O)NO)cc23)c1 [CUDC-101]
Iorio_RD [1]: R
Iorio_SJCRH30 [2]: R

CC[C@@]1(O)C(=O)OCc2c1cc1n(c2=O)Cc2cc3ccccc3nc2-1 [Camptothecin]
Iorio_SJCRH30 [2]: R

N.N.[Cl][Pt][Cl] [Cisplatin]
Iorio_SJCRH30 [2]: R

Nc1ccn([C@@H]2O[C@H](CO)[C@@H](O)[C@@H]2O)c(=O)n1 [Cytarabine]
Iorio_SJCRH30 [2]: S

CC(=O)O[C@@]12CO[C@@H]1C[C@H](O)[C@@]1(C)C(=O)[C@H](O)C3=C(C)[C@@H](OC(=O)[C@H](O)[C@@H](NC(=O)OC(C)(C)C)c4ccccc4)C[C@@](O)([C@@H](OC(=O)c4ccccc4)[C@H]21)C3(C)C [Docetaxel]
Iorio_SJCRH30 [2]: R

CN(NC(=O)CC(=O)NN(C)C(=S)c1ccccc1)C(=S)c1ccccc1 [Elesclomol]
Iorio_SJCRH30 [2]: R

Cn1cc(/C=C2\C(=O)Nc3cccnc32)c2ccccc21 [GW-441756]
Iorio_SJCRH30 [2]: S

COc1cc2ncnc(Nc3ccc(F)c(Cl)c3)c2cc1OCCCN1CCOCC1 [Gefitinib]
Iorio_SJCRH30 [2]: R

CNC(=O)c1ccc(Nc2cc(Nc3ccccc3S(=O)(=O)C(C)C)c3cc[nH]c3n2)nc1 [HG-5-113-01]
Iorio_SJCRH30 [2]: R

CCOc1nc(NC(=O)Cc2cc(OC)ccc2OC)cc(N)c1C#N [JNK-Inhibitor-VIII]
Iorio_SJCRH30 [2]: R

O=c1cc(-c2cccc3c2Sc2ccccc2S3)oc(N2CCOCC2)c1 [KU-55933]
Iorio_SJCRH30 [2]: R

Nc1cccc2c1CN(C1CCC(=O)NC1=O)C2=O (centres unmarked) [Lenalidomide]
Iorio_SJCRH30 [2]: R

NC1(c2ccc(-c3nc4ccn5c(=O)[nH]nc5c4cc3-c3ccccc3)cc2)CCC1 [MK-2206]
Iorio_SJCRH30 [2]: R

CN(Cc1cnc2nc(N)nc(N)c2n1)c1ccc(C(=O)N[C@@H](CCC(=O)O)C(=O)O)cc1 [Methotrexate]
Iorio_SJCRH30 [2]: R

O=c1cc(N2CCOCC2)oc2c(-c3cccc4c3sc3ccccc34)cccc12 [NU-7441]
Iorio_SJCRH30 [2]: R

Cn1c(=O)n(-c2ccc(C(C)(C)C#N)cc2)c2c3cc(-c4cnc5ccccc5c4)ccc3ncc21 [NVP-BEZ235]
Iorio_SJCRH30 [2]: R

Cc1cn(-c2cc(NC(=O)c3ccc(C)c(Nc4nccc(-c5cccnc5)n4)c3)cc(C(F)(F)F)c2)cn1 [Nilotinib]
Iorio_SJCRH30 [2]: R

COc1ccc(C2=N[C@@H](c3ccc(Cl)cc3)[C@@H](c3ccc(Cl)cc3)N2C(=O)N2CCNC(=O)C2)c(OC(C)C)c1 [Nutlin-3a]
Iorio_SJCRH30 [2]: R

CCN(CC)CCCCNc1ncc2cc(-c3cc(OC)cc(OC)c3)c(NC(=O)NC(C)(C)C)nc2n1 [PD-173074]
Iorio_SJCRH30 [2]: R

O=C(NOC[C@H](O)CO)c1ccc(F)c(F)c1Nc1ccc(I)cc1F [PD-0325901]
Iorio_SJCRH30 [2]: R

CC(=O)c1c(C)c2cnc(Nc3ccc(N4CCNCC4)cn3)nc2n(C2CCCC2)c1=O [PD-0332991]
Iorio_SJCRH30 [2]: R

O=C1NC(=NCc2cccs2)S/C1=C\c1ccc2ncccc2c1 [RO-3306]
Iorio_SJCRH30 [2]: R

Cn1cc(C2=C(c3ccc(Cl)cc3Cl)C(=O)NC2=O)c2ccccc21 [SB-216763]
Iorio_SJCRH30 [2]: R

CC(=O)O[C@@H]1[C@@H](OC(C)=O)[C@@H](O)[C@H](Oc2c(-c3ccc(O)cc3)oc3cc(O)cc(O)c3c2=O)O[C@H]1C [SL-0101-1]
Iorio_SJCRH30 [2]: R

CO[C@H]1C[C@@H]2CC[C@@H](C)[C@@](O)(O2)C(=O)C(=O)N2CCCC[C@H]2C(=O)O[C@H]([C@H](C)C[C@@H]2CC[C@@H](OC(=O)C(C)(CO)CO)[C@H](OC)C2)CC(=O)[C@H](C)/C=C(\C)[C@@H](O)[C@@H](OC)C(=O)[C@H](C)C[C@H](C)/C=C/C=C/C=C/1C [Temsirolimus]
Iorio_SJCRH30 [2]: R

NC(=O)c1ccc(N(C(N)=O)c2c(F)cccc2F)nc1-c1ccc(F)cc1F [VX-702]
Iorio_SJCRH30 [2]: R

CC[C@]1(O)C[C@@H]2CN(CCc3c([nH]c4ccccc34)[C@@](C(=O)OC)(c3cc4c(cc3OC)N(C)[C@H]3[C@@](O)(C(=O)OC)[C@H](OC(C)=O)[C@]5(CC)C=CCN6CC[C@]43[C@@H]65)C2)C1 [Vinblastine]
Iorio_SJCRH30 [2]: R

CS(=O)(=O)c1ccc(C(=O)Nc2ccc(Cl)c(-c3ccccn3)c2)c(Cl)c1 [Vismodegib]
Iorio_SJCRH30 [2]: R

CCOc1cc(N2CCC(O)CC2)ccc1Nc1ncc2c(n1)N(C)c1ccccc1C(=O)N2C [XMD8-92]
Iorio_SJCRH30 [2]: R

CN(C)C/C=C/C(=O)Nc1ccc(C(=O)Nc2cccc(Nc3nccc(-c4cccnc4)n3)c2)cc1 [ZG-10]
Iorio_SJCRH30 [2]: R

COc1cc2c(Nc3ccc(NC(=O)c4ccccc4)cc3)ncnc2cc1OCCCN1CCOCC1 [ZM-447439]
Iorio_SJCRH30 [2]: R
